Where only a bound is given, the exact number is not on record here.

The target of test [1] is intracellular GCN2 (phosphorylation of the GCN2 substrate eIF2α) (Homo sapiens (Human), UniProt Q9P2K8). The experiment in a line: GCN2 Cellular Inhibition Assay (AlphaScreen SureFire P-eIF2α Ser51, borrelidin-treated U2OS cells). In kind it is cell-based. The note with it: 10 μM borrelidin, 1 h, phosphorylated eIF2α Ser51, read-out: GCN2 Biomarker (IC50). In a few lines: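 U2OS cells adhered overnight, then given compound (top 40 μM, 4-fold serial dilutions) plus 10 μM borrelidin for 1 h at 37 °C. Lysates assayed for eIF2α phospho-Ser51 by AlphaScreen SureFire; % inhibition versus borrelidin-only wells.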
Sequence of intracellular GCN2 (phosphorylation of the GCN2 substrate eIF2α) (Q9P2K8 whole entry): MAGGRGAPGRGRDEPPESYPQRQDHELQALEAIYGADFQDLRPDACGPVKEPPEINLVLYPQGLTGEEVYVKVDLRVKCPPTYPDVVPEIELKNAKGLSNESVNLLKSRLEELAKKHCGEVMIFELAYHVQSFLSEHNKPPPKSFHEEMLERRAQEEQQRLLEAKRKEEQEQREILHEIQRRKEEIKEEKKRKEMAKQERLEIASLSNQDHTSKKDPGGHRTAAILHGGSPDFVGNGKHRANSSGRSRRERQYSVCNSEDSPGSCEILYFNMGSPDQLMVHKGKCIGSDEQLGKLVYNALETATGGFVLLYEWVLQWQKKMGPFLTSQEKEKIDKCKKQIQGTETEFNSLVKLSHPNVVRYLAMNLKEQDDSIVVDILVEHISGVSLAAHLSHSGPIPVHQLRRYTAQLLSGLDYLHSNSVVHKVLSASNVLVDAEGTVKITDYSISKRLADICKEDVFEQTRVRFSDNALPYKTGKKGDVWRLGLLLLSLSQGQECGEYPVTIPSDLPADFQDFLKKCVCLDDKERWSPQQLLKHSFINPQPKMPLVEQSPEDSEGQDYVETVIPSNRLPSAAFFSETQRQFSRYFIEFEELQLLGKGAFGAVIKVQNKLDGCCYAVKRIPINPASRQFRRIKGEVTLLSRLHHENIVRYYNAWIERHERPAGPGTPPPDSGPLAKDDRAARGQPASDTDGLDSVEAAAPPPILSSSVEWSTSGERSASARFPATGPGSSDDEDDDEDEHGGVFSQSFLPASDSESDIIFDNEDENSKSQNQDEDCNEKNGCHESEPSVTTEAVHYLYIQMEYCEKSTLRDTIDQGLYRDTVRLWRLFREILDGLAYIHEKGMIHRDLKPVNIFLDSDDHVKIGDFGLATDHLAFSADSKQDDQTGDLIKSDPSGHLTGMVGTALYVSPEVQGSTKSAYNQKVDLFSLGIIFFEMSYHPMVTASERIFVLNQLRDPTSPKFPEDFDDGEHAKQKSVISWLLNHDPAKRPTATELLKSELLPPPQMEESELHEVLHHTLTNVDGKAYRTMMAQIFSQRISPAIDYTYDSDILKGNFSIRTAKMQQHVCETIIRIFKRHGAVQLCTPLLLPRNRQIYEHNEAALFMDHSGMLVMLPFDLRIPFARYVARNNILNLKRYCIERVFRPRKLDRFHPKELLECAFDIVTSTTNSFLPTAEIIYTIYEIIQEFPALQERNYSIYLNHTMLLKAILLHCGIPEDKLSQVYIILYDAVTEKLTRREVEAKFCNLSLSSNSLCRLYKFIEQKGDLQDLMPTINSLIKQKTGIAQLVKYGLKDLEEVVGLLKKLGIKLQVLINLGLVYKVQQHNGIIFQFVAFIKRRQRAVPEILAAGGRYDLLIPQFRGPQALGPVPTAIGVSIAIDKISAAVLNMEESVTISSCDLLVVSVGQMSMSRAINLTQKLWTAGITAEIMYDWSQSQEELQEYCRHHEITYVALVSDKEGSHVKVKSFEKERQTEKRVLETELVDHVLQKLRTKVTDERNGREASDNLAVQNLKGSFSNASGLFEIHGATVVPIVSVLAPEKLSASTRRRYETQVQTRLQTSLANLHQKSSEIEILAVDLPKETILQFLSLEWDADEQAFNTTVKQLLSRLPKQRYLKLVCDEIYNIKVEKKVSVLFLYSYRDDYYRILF
(In general: Alpha assays give light when donor and acceptor beads are brought close together.)

The target in another test is GCN2 kinase (Homo sapiens (Human), UniProt Q9P2K8). As to the kind of experiment: GCN2 Enzyme Inhibition Assay (Transcreener ADP2 fluorescence polarization). Format: biochemical. The note with it: 280 μM ATP, 200 μM (RS)7 peptide, 4 nM GCN2, 25° C.; for Ki: Ki(app). In a few lines:
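Transcreener ADP2 fluorescence polarization detection of ADP from 4 nM GCN2 with (RS)7 substrate in 25 mM Tris-HCl pH 7.5, 50 mM NaCl, 10 mM MgCl2, 1 mM DTT. Compound pre-incubated with enzyme 10 min at 25 °C; reaction started by ATP, run 1 h at 25 °C. IC50 and Ki(app) by tight-binding fit.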
For orientation: Polarisation of emitted light reports the rotation of a fluorescent probe.

Sequence of GCN2 kinase (Q9P2K8 whole entry): as above

Usually IC50 stands for the point on the concentration scale where inhibition reaches its midpoint. With `CC1C(CNS(C)(=O)=O)N(C2COC2)CCN1c1ccnc(-c2cnc3ccc(C(F)F)cn23)n1` (stereo not shown) [I-530, N-((4-(2-(6-(difluoromethyl)imidazo[1,2-a]pyridin-3-yl)pyrimidin-4-yl)-3-methyl-1-(oxetan-3-yl)piperazin-2-yl)methyl)methanesulfonamide], the half-maximal inhibitory concentration (IC50) in test [1] is 500 to 5000 nM; against GCN2 kinase, 10 to 100 nM.
The matching figures for `FC(F)(F)c1ccc2ncc(-c3nccc(N4CCN(CC5CC5)C(c5cn[nH]c5)C4)n3)n2c1` (stereo not shown) [I-369, 4-[4-(cyclopropylmethyl)-3-(1H-pyrazol-4-yl)piperazin-1-yl]-2-[6-(trifluoromethyl)imidazo[1,2-a]pyridin-3-yl]pyrimidine]: less than 500 nM and less than 10 nM.
For `Fc1cc2ncc(-c3nccc(N4CCOC(c5cn[nH]c5)C4)n3)n2cc1Cl` (stereo not shown) [I-23, 4-[2-(6-Chloro-7-fluoro-imidazo[1,2-a]pyridin-3-yl)pyrimidin-4-yl]-2-(1H-pyrazol-4-yl)morpholine], the half-maximal inhibitory concentration (IC50) in test [1] is less than 500 nM. Moreover, at GCN2 kinase, the Ki was less than 10 nM.
On to `C[C@@H]1[C@@H](CNS(C)(=O)=O)N(C2CC2)[C@H](C)CN1c1ccnc(-c2cnc3ccc(C(F)(F)F)cn23)n1` (stereo in doubt) [I-493, N-(((2R,3R,6R)-1-cyclopropyl-3,6-dimethyl-4-(2-(6-(trifluoromethyl)imidazo[1,2-a]pyridin-3-yl)pyrimidin-4-yl)piperazin-2-yl)methyl)methanesulfonamide], for which the IC50 in test [1] was less than 500 nM; at GCN2 kinase it was 10 to 100 nM.
Consider `NC(=O)[C@H]1CCCN(c2nc(-c3cnc4ccc(C(F)(F)F)cn34)ncc2F)C1` [I-278, (S)-1-(5-fluoro-2-(6-(trifluoromethyl)imidazo[1,2-a]pyridin-3-yl)pyrimidin-4-yl)piperidine-3-carboxamide], for which the values for the IC50 (in test [1]; against GCN2 kinase) were less than 500 nM and less than 10 nM, respectively.
As for `Fc1ccc(CN2CCN(c3ccnc(-c4cnc5ccc(C(F)(F)F)cn45)n3)CC2c2cn[nH]c2)cc1F` (stereo not shown) [I-450, 3-(4-(4-(3,4-difluorobenzyl)-3-(1H-pyrazol-4-yl)piperazin-1-yl)pyrimidin-2-yl)-6-(trifluoromethyl)imidazo[1,2-a]pyridine], the IC50 in test [1] is less than 500 nM; against GCN2 kinase it was 10 to 100 nM.
The matching figures for `Cc1cc(-c2cnc3ccc(Cl)cn23)nc(N2C[C@H](C)O[C@@H](c3c[nH]nc3C)C2)n1` [I-220, (2S,6S)-4-(4-(6-chloroimidazo[1,2-a]pyridin-3-yl)-6-methylpyrimidin-2-yl)-2-methyl-6-(5-methyl-1H-pyrazol-4-yl)morpholine]: 500 to 5000 nM and 10 to 100 nM.
`Clc1ccc2ncc(-c3ncnc(N4CCOC(c5cn[nH]c5)C4)n3)n2c1` (stereo not shown) [I-22, 4-[4-(6-Chloroimidazo[1,2-a]pyridin-3-yl)-1,3,5-triazin-2-yl]-2-(1H-pyrazol-4-yl)morpholine]: the IC50 in test [1] was less than 500 nM. For the same compound, the Ki on GCN2 kinase was less than 10 nM.
Regarding `CC1(C)C[C@H]1CN1CCN(c2ccnc(-c3cnc4ccc(C(F)(F)F)cn34)n2)C[C@H]1c1cn[nH]c1` [I-526, 3-(4-((R)-4-(((R)-2,2-dimethylcyclopropyl)methyl)-3-(1H-pyrazol-4-yl)piperazin-1-yl)pyrimidin-2-yl)-6-(trifluoromethyl)imidazo[1,2-a]pyridine], the IC50 is less than 500 nM in test [1] and 10 to 100 nM against GCN2 kinase.
On to `Cc1noc([C@H]2CN(c3ccnc(-c4cnc5ccc(C#N)cn45)n3)C[C@@H](C)O2)n1` [I-92, 3-{4-[(2R,6R)-2-methyl-6-(3-methyl-1,2,4-oxadiazol-5-yl)morpholin-4-yl]pyrimidin-2-yl}imidazo[1,2-a]pyridine-6-carbonitrile], for which the IC50 in test [1] was in the range of 500 to 5000 nM. Further, at GCN2 kinase, the Ki is less than 10 nM.
Take `OCC1CN(c2ccnc(-c3cnc4ccc(C(F)(F)F)cn34)n2)CCC1O` (stereo not shown) [I-241, 3-(hydroxymethyl)-1-(2-(6-(trifluoromethyl)imidazo[1,2-a]pyridin-3-yl)pyrimidin-4-yl)piperidin-4-ol]: the results for the IC50 (in test [1]; on GCN2 kinase) were 500 to 5000 nM and 10 to 100 nM, respectively.
For `Cc1cnc(N2C[C@@H](C)C[C@H](c3cn[nH]c3)C2)nc1-c1cnc2ccc(Cl)cn12` (stereo in doubt) [I-197, 6-chloro-3-(5-methyl-2-((3 S, 5R)-3-methyl-5-(1H-pyrazol-4-yl)piperidin-1-yl)pyrimidin-4-yl)imidazo[1,2-a]pyridine] the same measures were less than 500 nM and 10 to 100 nM.
The matching figures for `FC(F)(F)c1ccc2ncc(-c3nccc(N4CCN(Cc5cocn5)C(c5cn[nH]c5)C4)n3)n2c1` (stereo not shown) [I-353, 4-((2-(1H-pyrazol-4-yl)-4-(2-(6-(trifluoromethyl)imidazo[1,2-a]pyridin-3-yl)pyrimidin-4-yl)piperazin-1-yl)methyl)oxazole]: less than 500 nM and less than 10 nM.
Regarding `C[C@@H]1C[C@H](N=S(C)(C)=O)CN(c2ccnc(-c3cnc4ccc(Oc5ccccc5)cn34)n2)C1` [I-325, dimethyl({[(3 S,5R)-5-methyl-1-(2-{6-phenoxyimidazo[1,2-a]pyridin-3-yl}pyrimidin-4-yl)piperidin-3-yl]imino})-λ6-sulfanone], the IC50 lay within 500 to 5000 nM in test [1] and 100 to 1000 nM at GCN2 kinase.
With `CC1CC(C(N)=O)C(C)N(c2ccnc(-c3cnc4ccc(Cl)cn34)n2)C1` (stereo not shown) [I-50, 1-[2-(6-Chloroimidazo[1,2-a]pyridin-3-yl)pyrimidin-4-yl]-2,5-dimethyl-piperidine-3-carboxamide], the IC50 in test [1] lay in the range of 500 to 5000 nM. Also, the Ki at GCN2 kinase was less than 10 nM.
Consider `C[C@H]1[C@@H](CNS(C)(=O)=O)N(C2CC2)[C@@H](C)CN1c1ccnc(-c2cnc3ccc(C(F)(F)F)cn23)n1` (stereo in doubt) [I-491, N-(((2R,3 S,6S)-1-cyclopropyl-3,6-dimethyl-4-(2-(6-(trifluoromethyl)imidazo[1,2-a]pyridin-3-yl)pyrimidin-4-yl)piperazin-2-yl)methyl)methanesulfonamide], for which the IC50 in test [1] was less than 500 nM; against GCN2 kinase, 10 to 100 nM.
For `O=C(C1CC1)N1CCN(c2ccnc(-c3cnc4ccc(C(F)(F)F)cn34)n2)CC1c1cn[nH]c1` (stereo not shown) [I-397, (2-(1H-pyrazol-4-yl)-4-(2-(6-(trifluoromethyl)imidazo[1,2-a]pyridin-3-yl)pyrimidin-4-yl)piperazin-1-yl)(cyclopropyl)methanone] the same measures were 500 to 5000 nM and 10 to 100 nM.
As for `CS(=O)(=O)NCC1CCCN(c2nsc(-c3cnc4ccc(C(F)(F)F)cn34)n2)C1` (stereo not shown) [I-110, N-((1-(5-(6-(trifluoromethyl)imidazo[1,2-a]pyridin-3-yl)-1,2,4-thiadiazol-3-yl)piperidin-3-yl)methyl)methanesulfonamide], the IC50 in test [1] was in the range of 500 to 5000 nM. On GCN2 kinase, the Ki is less than 10 nM.
On to `CC1CN(c2ccnc(-c3cnc4ccc(Cl)cn34)n2)CC(c2cnn(S(C)(=O)=O)c2)N1S(C)(=O)=O` (stereo not shown) [I-301, 6-chloro-3-(4-(3-methyl-4-(methylsulfonyl)-5-(1-(methylsulfonyl)-1H-pyrazol-4-yl)piperazin-1-yl)pyrimidin-2-yl)imidazo[1,2-a]pyridine], for which the results for the IC50 (in test [1]; against GCN2 kinase) were 500 to 5000 nM and 100 to 1000 nM, respectively.
In the case of `NS(=O)(=O)c1ccc2ncc(-c3nccc(N4CCCC(c5cn[nH]c5)C4)n3)n2c1` (stereo not shown) [I-320, 3-(4-(3-(1H-pyrazol-4-yl)piperidin-1-yl)pyrimidin-2-yl)imidazo[1,2-a]pyridine-6-sulfonamide], the IC50 in test [1] lay in the range of 500 to 5000 nM; at GCN2 kinase, 10 to 100 nM.
For `COCCn1cc([C@@H]2C[C@H](C)CN(c3nccc(-c4cnc5ccc(C(F)(F)F)cn45)n3)C2)cn1` [I-146, 3-(2-((3S,5S)-3-(1-(2-methoxyethyl)-1H-pyrazol-4-yl)-5-methylpiperidin-1-yl)pyrimidin-4-yl)-6-(trifluoromethyl)imidazo[1,2-a]pyridine] the same measures were 500 to 5000 nM and 100 to 1000 nM.
Regarding `C[C@H]1CN(c2ccnc(-c3cnc4ccc(C(F)(F)F)cn34)n2)C[C@@H](CNS(C)(=O)=O)C1(F)F` (stereo in doubt) [I-8, N-[[-4,4-Difluoro-5-methyl-1-[2-[6-(trifluoromethyl)imidazo[1,2-a]pyridin-3-yl]pyrimidin-4-yl]-3-piperidyl]methyl]methanesulfonamide], the IC50 in test [1] fell in the range of 500 to 5000 nM. This compound gave a Ki on GCN2 kinase of 10 to 100 nM.
Consider `FC(F)(F)c1ccc2ncc(-c3nccc(N4CCCC5(CNC5)C4)n3)n2c1` [I-413, 6-(2-(6-(trifluoromethyl)imidazo[1,2-a]pyridin-3-yl)pyrimidin-4-yl)-2,6-diazaspiro[3.5]nonane], for which the concentration for half-maximal inhibition (IC50) in test [1] is more than 5000 nM; at GCN2 kinase, 100 to 1000 nM.
Consider `Clc1ccc2ncc(-c3nccc(N4CCCC(c5ccon5)C4)n3)n2c1` (stereo not shown) [I-66, 6-Chloro-3-[4-(3-isoxazol-3-yl-piperidin-1-yl)-pyrimidin-2-yl]-imidazo[1,2-a]pyridine], for which the IC50 in test [1] fell in the range of 500 to 5000 nM. The Ki at GCN2 kinase lay within 10 to 100 nM.
In the case of `CC1CN(c2ccnc(-c3cnc4ccc(C(F)(F)F)cn34)n2)CC(C)N1CC#N` (stereo not shown) [I-393, 2-(2,6-dimethyl-4-(2-(6-(trifluoromethyl)imidazo[1,2-a]pyridin-3-yl)pyrimidin-4-yl)piperazin-1-yl)acetonitrile], the IC50 in test [1] fell in the range of 500 to 5000 nM; on GCN2 kinase, 100 to 1000 nM.
`C[C@H]1CN(c2nc(-c3cnc4ccc(C(F)F)cn34)ns2)C[C@@H](CNS(C)(=O)=O)C1(F)F` [I-103, N-(((3S,5S)-1-(3-(6-(difluoromethyl)imidazo[1,2-a]pyridin-3-yl)-1,2,4-thiadiazol-5-yl)-4,4-difluoro-5-methylpiperidin-3-yl)methyl)methanesulfonamide]: in test [1], the IC50 is less than 500 nM. The same compound displayed a Ki at GCN2 kinase of less than 10 nM.

(Values after patent US10793563B2, “GCN2 inhibitors and uses thereof” (Merck Patent GmbH, priority 2018, dated 2020).)
